Source: US11104619B2, “Mixture for treating fertilizers containing urea” (EuroChem Agro GmbH, priority 2015, dated 2021)
Like-named read-outs stand apart in the source and are kept apart here.

Experiments:
[1] = test system: nitrification; test: Soil incubation trial: recovery of applied urea N as ammonium; settings: for percentage recovery in the form of ammonium, % of applied urea (13 mg N): 28 days after application, Filder loam pH 6.8, 20° C., 200 kg urea N/ha, label gives UI/NI fraction of recommended rate (0.6 g NBPT, 3.6 g DMPSA per kg urea)
Method: % of applied urea (13 mg N)
A determination was carried out 28 days after application of the urea, with the percentage recovery in the form of ammonium being reported.

[2] = test system: nitrification; test: Soil incubation trial: nitrate formed from applied urea N; settings: for Nitrate, % of the urea applied (13 mg N): Filder loam, 20° C., label gives UI/NI fraction of recommended rate
Method: % of the urea applied (13 mg N)

[3] = test system: nitrification; test: Soil incubation trial: cumulative laughing gas (N2O-N) emission; settings: for N2O—N cumulative / N2O—N cumulative, % of appl.: 77 mg N applied; for N2O—N cumulative, % of appl.: cumulative over 28 days
[4] = test system: urease; settings: for Ammonia emission, % of the urea applied (77 mg N): Filder loam, 20° C., label gives UI/NI fraction of recommended rate
Method: Screening trials were conducted to evaluate the effect of DMPSA and NBPT in the inhibition of urease and inhibition of nitrification, and to find suitable quantities for use. Serving for this purpose was a two-factorial trial design including an unfertilized control sample. For the urease inhibitor NBPT and for the nitrification inhibitor DMPSA, in each case 0%, 33%, 66% and 100% of the application rates recommended for the individual compounds when used alone were used (in this example, 0.6 g of NBPT per kg of urea and, respectively, 3.6 g of DMPSA per kg of urea), giving 16 trials (0%-0% to 100%-100%), in addition to the unfertilized control sample.
Urea fertilizer was delivered in an amount of 200 kg nitrogen per ha, corresponding to 0.51 mg of urea nitrogen per g of soil. The soil used was Filder loam with a pH of 6.8. The incubation trials were carried out at 20° C. For the investigation of trace gases, air supply was passed first through a gas sample, then through a 250 ml capacity glass bottle containing 150 g of soil, subsequently through a gas sample for the outgoing air and through an acid trap, in order, for example, to determine amounts of ammonia. For the measurement of nitrogen, about 20 g of soil were incubated; for the measurement of urea, about 5 g of soil.

Cc1cn(C(CC(=O)O)C(=O)O)nc1C (stereo not drawn) [DMPSA, 2-(N-3,4-dimethylpyrazole)succinic acid]
inhibition of nitrification (ammonium results) ([1]; 33% of DMPSA, throughout the trial): sufficient to inhibit nitrification throughout the trial
percentage recovery in the form of ammonium, % of applied urea (13 mg N) ([1]; listed as UI 0 NI 1): 69%
percentage recovery in the form of ammonium, % of applied urea (13 mg N) ([1]; listed as UI 0 NI ⅓): 62%
percentage recovery in the form of ammonium, % of applied urea (13 mg N) ([1]; listed as UI 0 NI ⅔): 63%
inhibition of nitrification (nitrate results) ([2]; 33% of the DMPSA, entire period): sufficient to inhibit nitrification during the entire period
Nitrate, % of the urea applied (13 mg N) ([2]; 5 days after application, listed as UI 0 NI 1): 6%
Nitrate, % of the urea applied (13 mg N) ([2]; 5 days after application, listed as UI 0 NI ⅓): 4%
Nitrate, % of the urea applied (13 mg N) ([2]; 5 days after application, listed as UI 0 NI ⅔): 5%
Nitrate, % of the urea applied (13 mg N) ([2]; 28 days after application, listed as UI 0 NI 1): 14%
Nitrate, % of the urea applied (13 mg N) ([2]; 28 days after application, listed as UI 0 NI ⅓): 20%
Nitrate, % of the urea applied (13 mg N) ([2]; 28 days after application, listed as UI 0 NI ⅔): 17%
N2O—N cumulative ([3]; 0 days after appl., 150 g soil): 0 μg N2O—N Bottle^1
emissions of laughing gas ([3]; 33% of DMPSA): drastically reduces the emissions of laughing gas
N2O—N cumulative ([3]; 0.5 days after appl.): 0 μg N2O—N Bottle^1
N2O—N cumulative ([3]; 1 day after appl., listed as UI-0_NI-1): 3 μg N2O—N Bottle^1
N2O—N cumulative ([3]; 1 day after appl., listed as UI-0_NI-2): 1 μg N2O—N Bottle^1
N2O—N cumulative ([3]; 1 day after appl., listed as UI-0_NI-3): 1 μg N2O—N Bottle^1
N2O—N cumulative ([3]; 2 days after appl., listed as UI-0_NI-1): 3 μg N2O—N Bottle^1
N2O—N cumulative ([3]; 2 days after appl., listed as UI-0_NI-2): 1 μg N2O—N Bottle^1
N2O—N cumulative ([3]; 2 days after appl., listed as UI-0_NI-3): 1 μg N2O—N Bottle^1
N2O—N cumulative ([3]; 3 days after appl., listed as UI-0_NI-1): 4 μg N2O—N Bottle^1
N2O—N cumulative ([3]; 3 days after appl., listed as UI-0_NI-2): 2 μg N2O—N Bottle^1
N2O—N cumulative ([3]; 3 days after appl., listed as UI-0_NI-3): 1 μg N2O—N Bottle^1
N2O—N cumulative ([3]; 4 days after appl., listed as UI-0_NI-1): 4 μg N2O—N Bottle^1
N2O—N cumulative ([3]; 4 days after appl., listed as UI-0_NI-2): 2 μg N2O—N Bottle^1
N2O—N cumulative ([3]; 4 days after appl., listed as UI-0_NI-3): 2 μg N2O—N Bottle^1
N2O—N cumulative ([3]; 5 days after appl., listed as UI-0_NI-1): 4 μg N2O—N Bottle^1
N2O—N cumulative ([3]; 5 days after appl., listed as UI-0_NI-2): 2 μg N2O—N Bottle^1
N2O—N cumulative ([3]; 5 days after appl., listed as UI-0_NI-3): 2 μg N2O—N Bottle^1
N2O—N cumulative ([3]; 6 days after appl., listed as UI-0_NI-1): 5 μg N2O—N Bottle^1
N2O—N cumulative ([3]; 6 days after appl., listed as UI-0_NI-2): 2 μg N2O—N Bottle^1
N2O—N cumulative ([3]; 6 days after appl., listed as UI-0_NI-3): 2 μg N2O—N Bottle^1
N2O—N cumulative ([3]; 8 days after appl., listed as UI-0_NI-1): 6 μg N2O—N Bottle^1
N2O—N cumulative ([3]; 8 days after appl., listed as UI-0_NI-2): 3 μg N2O—N Bottle^1
N2O—N cumulative ([3]; 8 days after appl., listed as UI-0_NI-3): 3 μg N2O—N Bottle^1
N2O—N cumulative ([3]; 10 days after appl., listed as UI-0_NI-1): 5 μg N2O—N Bottle^1
N2O—N cumulative ([3]; 10 days after appl., listed as UI-0_NI-2): 3 μg N2O—N Bottle^1
N2O—N cumulative ([3]; 10 days after appl., listed as UI-0_NI-3): 2 μg N2O—N Bottle^1
N2O—N cumulative ([3]; 12 days after appl., listed as UI-0_NI-1): 5 μg N2O—N Bottle^1
N2O—N cumulative ([3]; 12 days after appl., listed as UI-0_NI-2): 3 μg N2O—N Bottle^1
N2O—N cumulative ([3]; 12 days after appl., listed as UI-0_NI-3): 3 μg N2O—N Bottle^1
N2O—N cumulative ([3]; 14 days after appl., listed as UI-0_NI-1): 6 μg N2O—N Bottle^1
N2O—N cumulative ([3]; 14 days after appl., listed as UI-0_NI-2): 3 μg N2O—N Bottle^1
N2O—N cumulative ([3]; 14 days after appl., listed as UI-0_NI-3): 3 μg N2O—N Bottle^1
N2O—N cumulative ([3]; 17 days after appl., listed as UI-0_NI-1): 6 μg N2O—N Bottle^1
N2O—N cumulative ([3]; 17 days after appl., listed as UI-0_NI-2): 3 μg N2O—N Bottle^1
N2O—N cumulative ([3]; 17 days after appl., listed as UI-0_NI-3): 3 μg N2O—N Bottle^1
N2O—N cumulative ([3]; 18 days after appl., listed as UI-0_NI-1): 5 μg N2O—N Bottle^1
N2O—N cumulative ([3]; 18 days after appl., listed as UI-0_NI-2): 1 μg N2O—N Bottle^1
N2O—N cumulative ([3]; 18 days after appl., listed as UI-0_NI-3): 2 μg N2O—N Bottle^1
N2O—N cumulative ([3]; 20 days after appl., listed as UI-0_NI-1): 5 μg N2O—N Bottle^1
N2O—N cumulative ([3]; 20 days after appl., listed as UI-0_NI-2): 2 μg N2O—N Bottle^1
N2O—N cumulative ([3]; 20 days after appl., listed as UI-0_NI-3): 2 μg N2O—N Bottle^1
N2O—N cumulative ([3]; 22 days after appl., listed as UI-0_NI-1): 7 μg N2O—N Bottle^1
N2O—N cumulative ([3]; 22 days after appl., listed as UI-0_NI-2): 3 μg N2O—N Bottle^1
N2O—N cumulative ([3]; 22 days after appl., listed as UI-0_NI-3): 2 μg N2O—N Bottle^1
N2O—N cumulative ([3]; 24 days after appl., listed as UI-0_NI-1): 7 μg N2O—N Bottle^1
N2O—N cumulative ([3]; 24 days after appl., listed as UI-0_NI-2): 4 μg N2O—N Bottle^1
N2O—N cumulative ([3]; 24 days after appl., listed as UI-0_NI-3): 3 μg N2O—N Bottle^1
N2O—N cumulative ([3]; 28 days after appl., listed as UI-0_NI-1): 8 μg N2O—N Bottle^1
N2O—N cumulative ([3]; 28 days after appl., listed as UI-0_NI-2): 6 μg N2O—N Bottle^1
N2O—N cumulative ([3]; 28 days after appl., listed as UI-0_NI-3): 4 μg N2O—N Bottle^1
N2O—N cumulative, % of appl. ([3]; listed as UI-0_NI-1): 0.01 % of appl.
N2O—N cumulative, % of appl. ([3]; listed as UI-0_NI-2): 0.01 % of appl.
N2O—N cumulative, % of appl. ([3]; listed as UI-0_NI-3): 0.00 % of appl.
Ammonia emission, % of the urea applied (77 mg N) ([4]; 4 days after application, listed as UI 0 NI 1): 0.7%
Ammonia emission, % of the urea applied (77 mg N) ([4]; 4 days after application, listed as UI 0 NI ⅓): 0.6%
Ammonia emission, % of the urea applied (77 mg N) ([4]; 4 days after application, listed as UI 0 NI ⅔): 0.9%
Ammonia emission, % of the urea applied (77 mg N) ([4]; 9 days after application, listed as UI 0 NI 1): 2.2%
Ammonia emission, % of the urea applied (77 mg N) ([4]; 9 days after application, listed as UI 0 NI ⅓): 3.7%
Ammonia emission, % of the urea applied (77 mg N) ([4]; 9 days after application, listed as UI 0 NI ⅔): 2.4%
effect of addition on ammonia emissions ([4]; addition of DMPSA): causes the ammonia emissions to rise
